Where “and” joins values, the source holds several entries; their conditions need not be identical. Equal values may be shown once. Entries after “also recorded” stand apart in the source; their conditions may differ. Read-outs that look alike come from different tables or passages of the source.
Key:
SARS-CoV-2 [1] = assay: Viral inhibition by Spike immunohistochemistry (IHC) assay in A549-ACE2 cells; type: cell-based; settings: for 80% Inhibition of SARS-CoV-2: concentration giving 80% inhibition; for IC50: read-out: IC-50, Anti-SARS-CoV-2
SARS-CoV-2 Alpha strain = assay: microbe, parasite or virus in culture; type: cell-based; settings: read-out: efficacy (viral titer reduction)
SARS-CoV-2 Delta strain = assay: microbe, parasite or virus in culture; type: cell-based; settings: read-out: efficacy (viral titer reduction)
[2] = system: SARS-CoV-2 Omicron strain; assay: microbe, parasite or virus in culture; type: cell-based; settings: read-out: efficacy (viral titer reduction)
[3] = system: Human alveolar cell line A549; settings: A549, maximum concentration tested 1.34 μM
[4] = system: A549, HEK293, and HUH7.1 cell lines
[5] = intradermal injection; cited from earlier work
SARS-CoV-2 [6] = type: cell-based
[7] = system: immortalized Human fetal renal cell line HEK293; settings: HEK293, maximum concentration tested 1.34 μM
[8] = system: Human hepatoma cell line Huh7.1; settings: Huh7.1, maximum concentration tested 1.34 μM
[9] = Severe acute respiratory syndrome coronavirus 2, plaque assay

For COc1cccc2[nH]c(C(=O)N[C@@H](CC(C)C)C(=O)N[C@@H](C[C@@H]3CCNC3=O)C(=O)CO)cc12 [PF-00835231, reference compound], the “80% Inhibition of SARS-CoV-2” value (SARS-CoV-2 [1]) was 0.68 µM, the “80% Inhibition of SARS-CoV-2” value (SARS-CoV-2 [1]; listed as PF-00835231 (Pfizer)) was 0.68 ± 0.023 µM and the IC50 (SARS-CoV-2 [1]) was 0.23 ± 0.03 µM.

Compound CCC(CC)COC(=O)[C@H](C)N[P@](=O)(OC[C@H]1O[C@@](C#N)(c2ccc3c(N)ncnn23)[C@H](O)[C@@H]1O)Oc1ccccc1 [Remdesivir, reference compound] has an IC50 (SARS-CoV-2 Alpha strain; [9]) of 0.248 µM, an IC50 (SARS-CoV-2 Delta strain; [9]) of 0.139 µM and an IC50 [2, 9] of 0.125 µM.

mycolactone [MLN] gave a Cytotoxicity [3] of 17.12±9.1%, an IC50 (SARS-CoV-2 Alpha strain; plaque assay) of 0.02 µM and an IC50 (SARS-CoV-2 Delta strain; plaque assay) of 0.015 µM. For the same compound, the “cytotoxicity IC50 breakpoint ratio versus anti-SARS-CoV-2 activity” value ([4]; 1.34 μM maximum concentration versus average IC50s) was “more than 65 ×”, the “cytotoxicity against human cell lines” value ([4]; in vitro) was “not cytotoxic” and the IC50 ([2]; plaque assay) was 0.007 µM. For the same compound, the “half-life in the periphery blood circulation” value [5] was “short”, the “blocking of virus entry” value (SARS-CoV-2 [6]) was “complete blocking activity; also recorded: completely blocks; also recorded: complete prevention” and the “blocking of virus spread” value (SARS-CoV-2 [6]) was “complete blocking activity; also recorded: completely blocks; also recorded: complete prevention”. The IC50 (SARS-CoV-2 [1]; A549-ACE2 cells, Spike IHC) was 0.02 ± 0.006 µM, the inhibition (SARS-CoV-2 [1]; at 20 nM) was 90% and the average inhibition (SARS-CoV-2 [1]; at 30nM, IHC assay in triplicate) was 84%. For the same compound, the inhibition (SARS-CoV-2 [1]; at 42 nM) was 100%, the “80% Inhibition of SARS-CoV-2” value (SARS-CoV-2 [1]) was 0.03 µM and 0.03 ± 0.005 µM and the “viral inhibition against SARS-CoV-2” value (SARS-CoV-2 [1]; up to 60nM, IHC assay in triplicate) was 100%. It also gave a Cytotoxicity [7] of 40.30±3.6% and a Cytotoxicity [8] of 36.25±5.6%.
